Tests used:
[1] = target: T1, human orexin type 2 receptor (Homo sapiens, UniProt O43614); experiment: Measurement of orexin type 2 receptor agonist activity (calcium indicator fluorescence, CHO cells forcibly expressing human OX2 receptor); format: cell-based; details: compound at 3 μM; 0% = DMSO, 100% = orexin A (human) 10 nM
T1 construct: expressed in transfected cells
T1 sequence (O43614 1-444): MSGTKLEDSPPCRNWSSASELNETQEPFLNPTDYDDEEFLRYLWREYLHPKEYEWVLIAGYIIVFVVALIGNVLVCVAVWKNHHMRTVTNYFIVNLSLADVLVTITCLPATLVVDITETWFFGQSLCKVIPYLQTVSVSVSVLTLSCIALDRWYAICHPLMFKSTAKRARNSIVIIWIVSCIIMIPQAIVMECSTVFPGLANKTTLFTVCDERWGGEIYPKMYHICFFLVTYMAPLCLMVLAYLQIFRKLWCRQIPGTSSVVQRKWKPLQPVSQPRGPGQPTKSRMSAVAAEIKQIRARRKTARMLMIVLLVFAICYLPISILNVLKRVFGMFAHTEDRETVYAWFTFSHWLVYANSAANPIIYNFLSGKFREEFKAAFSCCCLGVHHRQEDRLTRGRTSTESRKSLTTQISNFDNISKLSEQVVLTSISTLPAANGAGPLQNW
Summary of the method: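 Agonist response normalised between vehicle (0%) and orexin A at 10 nM final (100%), from kinetic Fluo-4 calcium signals recorded for about 2 min after compound addition. Cells: stable human OX2R CHO clone, dye-loaded 30 min at 37 °C plus 30 min at room temperature.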

[2] = Evaluation of microsome stability in human; format: in vitro ADME; details: pH 7.4; in vitro intrinsic metabolic clearance; human liver microsomes 0.2 mg/mL, 1 μmol/L test compound, NADPH-generating system
Protocol: Human liver microsomes were purchased from Xenotech, LLC (Lenexa, Kans.). An incubation mixture consisted of microsomes in 50 mmol/L KH2PO4—K2HPO4 phosphate buffer (pH 7.4) and 1 μmol/L test compound. The concentration of microsomal protein was 0.2 mg/mL. An NADPH-generating system (5 mmol/L MgCl2, 5 mmol/L glucose-6-phosphate, 0.5 mmol/L beta-NADP+ and 1.5 unit/mL glucose-6-phosphate dehydrogenase) was added to the incubation mixture with a half volume of the reaction mixture to initiate the enzyme reaction. The reaction was terminated 15 and 30 minutes after the initiation of the reaction by mixing the reaction mixture with acetonitrile, followed by centrifugation at 2500 rpm for 10 min. The supernatant was subjected to LC/MS/MS analysis. The metabolic rate constant was calculated as the slope of the remaining rate-time plot. The in vitro intrinsic metabolic clearance was calculated by dividing initial metabolic rate constant by microsomal protein in the incubation mixture.

[3] = test system: cynomolgus monkeys; experiment: Evaluation of wake-promoting effects in cynomolgus monkeys (EEG/EMG); format: in vivo, cynomolgus monkey; details: Macaca fascicularis, time spent in wakefulness for 4 h after administration, read-out: Wakefulness time (% of vehicle treatment) (Mean); for response vs control in vivo at 3 mg/kg: 3 mg/kg p.o. at ZT12; for response vs control in vivo at 0.1 mg/kg / response vs control in vivo at 0.3 mg/kg: sc; for response vs control in vivo at 0.1 mg/kg: 0.1 mg/kg s.c. at ZT12; for response vs control in vivo at 0.3 mg/kg: 0.3 mg/kg s.c. at ZT12
Protocol: The wake-promoting effects were evaluated by measuring the electroencephalogram (EEG) and electromyogram (EMG) in cynomolgus monkeys. Under isoflurane anesthesia (1-5%, Pfizer Japan Inc., Tokyo, Japan), male cynomolgus monkeys (3-5 years old, Hamri Co., Ltd., Ibaraki, Japan) were surgically implanted with radio-telemetry transmitters (TL10M3-D70-EEE, Data Sciences International Inc., MN, USA). EEG electrodes were screwed into the skull at the parietal area. EMG electrodes were implanted on the cervical muscles. After the surgery, each monkey was given penicillin (100,000 units/head, i.m., Meiji Seika Pharma Co., Ltd., Tokyo, Japan), buprenorphine (0.02 mg/kg, i.m., Otsuka Pharmaceutical Co., Ltd., Tokyo, Japan) and prednisolone (1 mg/kg, s.c., Kyoritsu Seiyaku Co., Ltd., Tokyo, Japan) daily for one week. After at least a 1-month recovery period in home cages, the monkeys were habituated to the recording chamber placed in a soundproof room. EEG and EMG signals were recorded using the telemetry system (Dataquest ART software, Data Sciences International Inc., MN, USA) and the signals were analyzed using SleepSign software (Kissei Comtec Co., Ltd., Nagano, Japan). After confirming long sleep in dark phase in the experimental room, we used animals to examine the wake-promoting effect of compounds.
Oral test compounds (3 or 10 mg/kg) suspended in 0.5% methylcellulose aqueous solution, or vehicle (i.e., 0.5% methylcellulose aqueous solution) was administered orally (p.o.) to monkeys at zeitgeber time 12 (ZT12) in a volume of 5 mL/kg body weight in cross-over design or pre-post design (n=1-4). EEG and EMG recordings were performed for 4 h after the compound administration. The time spent in wakefulness for 4 h after administration (% of vehicle treatment) was calculated by using SleepSign.
Parenteral test compounds (0.1 or 0.3 mg/kg) dissolved in a mixed solution comprising 5% DMSO, 5% Cremophor EL, 20% PEG400 and 70% soluplus (1% (w/v)), or vehicle (i.e., a mixed solution comprising 5% DMSO, 5% Cremophor EL, 20% PEG400 and 70% soluplus (1% (w/v))) was administered subcutaneously (s.c.) to monkeys at ZT12 in a volume of 0.5 mL/kg body weight in a pre-post design (n=1-2). EEG and EMG recordings were performed for 4 h after the compound administration. The time spent in wakefulness for 4 h after administration (% of vehicle treatment) was calculated by using SleepSign.

For `CCS(=O)(=O)N[C@@H]1[C@H](Cc2cccc(-c3cc(F)cc(F)c3)c2F)N(C(=O)[C@H]2C[C@@H](F)C2)CC1(F)F` [Example 380, N-{(2S,3R)-4,4-difluoro-1-((1s,3R)-3-fluorocyclobutane-1-carbonyl)-2-[(2,3′,5′-trifluoro[1,1′-biphenyl]-3-yl)methyl]pyrrolidin-3-yl}ethanesulfonamide], the “OX2R agonist activity (3 μM, %)” value [1] was 93%, the microsomal CLint at 1 μmol/L [2] was 39 µL/min/mg and the response vs control in vivo at 3 mg/kg ([3]; po) was 484%.
For `CCS(=O)(=O)N[C@@H]1[C@H](Cc2cccc(-c3ccccc3)c2F)N(C(=O)C(C)(C)O)CC1(F)F` [Example 5, N-[(2S,3R)-4,4-difluoro-2-[(2-fluoro[1,1′-biphenyl]-3-yl)methyl]-1-(2-hydroxy-2-methylpropanoyl)pyrrolidin-3-yl]ethanesulfonamide], the “OX2R agonist activity (3 μM, %)” value [1] was 117%, the microsomal CLint at 1 μmol/L [2] was 12 µL/min/mg and the response vs control in vivo at 10 mg/kg ([3]; po, 10 mg/kg p.o. at ZT12) was 412%.
For `CS(=O)(=O)N[C@@H]1[C@H](Cc2cccc(-c3cc(F)cc(F)c3)c2F)N(C(=O)[C@H]2C[C@@H](F)C2)CC1(F)F` [Example 433, N-{(2S,3R)-4,4-difluoro-1-(3-fluorocyclobutane-1-carbonyl)-2-[(2,3′,5′-trifluoro[1,1′-biphenyl]-3-yl)methyl]pyrrolidin-3-yl}methanesulfonamide], the “OX2R agonist activity (3 μM, %)” value [1] was 101%, the microsomal CLint at 1 μmol/L [2] was 16 µL/min/mg and the response vs control in vivo at 3 mg/kg ([3]; po) was 727%.
In the case of `CCS(=O)(=O)N[C@@H]1[C@H](Cc2cccc(-c3cccc(F)c3)c2F)N(C(=O)[C@H]2C[C@H](F)C2)CC1(F)F` [Example 225, N-[(2S,3R)-2-[(2,3′-difluoro[1,1′-biphenyl]-3-yl)methyl]-4,4-difluoro-1-((1r,3S)-3-fluorocyclobutane-1-carbonyl)pyrrolidin-3-yl]ethanesulfonamide], the “OX2R agonist activity (3 μM, %)” value [1] is reported as 96%, the microsomal CLint at 1 μmol/L [2] is reported as 60 µL/min/mg and the response vs control in vivo at 3 mg/kg ([3]; po) is reported as 318%.
For `Cc1cccc(-c2cccc(C[C@H]3[C@@H](NS(=O)(=O)N(C)C)[C@@H](F)CN3C(=O)N3CCC3)c2F)c1` [Example 463, N′-{(2S,3R,4S)-1-(azetidine-1-carbonyl)-4-fluoro-2-[(2-fluoro-3′-methyl[1,1′-biphenyl]-3-yl)methyl]pyrrolidin-3-yl}-N,N-dimethylsulfuric diamide], the “OX2R agonist activity (3 μM, %)” value [1] was 79% and the response vs control in vivo at 0.1 mg/kg [3] was 483%.
For `CCS(=O)(=O)N[C@@H]1[C@H](Cc2cccc(-c3cc(F)cc(F)c3)c2F)N(C(=O)C2CC2)CC1(F)F` [Example 144, N-{(2S,3R)-1-(cyclopropanecarbonyl)-4,4-difluoro-2-[(2,3′,5′-trifluoro[1,1′-biphenyl]-3-yl)methyl]pyrrolidin-3-yl}ethanesulfonamide], the “OX2R agonist activity (3 μM, %)” value [1] was 88%, the microsomal CLint at 1 μmol/L [2] was 13 µL/min/mg and the response vs control in vivo at 3 mg/kg ([3]; po) was 649%.
With `CCS(=O)(=O)N[C@@H]1[C@H](Cc2cccc(-c3cc(F)cc(F)c3)c2F)N(C(=O)C(C)C)CC1(F)F` [Example 146, N-{(2S,3R)-4,4-difluoro-1-(2-methylpropanoyl)-2-[(2,3′,5′-trifluoro[1,1′-biphenyl]-3-yl)methyl]pyrrolidin-3-yl}ethanesulfonamide] the “OX2R agonist activity (3 μM, %)” value [1] was 92%, the microsomal CLint at 1 μmol/L [2] was 83 µL/min/mg and the response vs control in vivo at 3 mg/kg ([3]; po) was 426%.
With `Cc1cccc(-c2cccc(C[C@H]3[C@@H](NS(=O)(=O)N(C)C)[C@@H](F)CN3C(=O)N(C)C)c2F)c1` [Example 459, (2S,3R,4S)-3-[(dimethylsulfamoyl)amino]-4-fluoro-2-[(2-fluoro-3′-methyl[1,1′-biphenyl]-3-yl)methyl]-N,N-dimethylpyrrolidine-1-carboxamide] the “OX2R agonist activity (3 μM, %)” value [1] was 78% and the response vs control in vivo at 0.3 mg/kg [3] was 431%.
For `CCS(=O)(=O)N[C@@H]1[C@H](Cc2cccc(-c3cc(F)cc(F)c3)c2F)N(C(=O)C(C)(C)O)CC1(F)F` [Example 3, N-{(2S,3R)-4,4-difluoro-1-(2-hydroxy-2-methylpropanoyl)-2-[(2,3′,5′-trifluoro[1,1′-biphenyl]-3-yl)methyl]pyrrolidin-3-yl}ethanesulfonamide], the “OX2R agonist activity (3 μM, %)” value [1] was 106% and the response vs control in vivo at 3 mg/kg ([3]; po) was 613%.
For `CCS(=O)(=O)N[C@H]1[C@@H](F)CN(C(=O)N2CCC2)[C@H]1Cc1cccc(-c2cccc(C)c2)c1F` [Example 451, N-{(2S,3R,4S)-1-(azetidine-1-carbonyl)-4-fluoro-2-[(2-fluoro-3′-methyl[1,1′-biphenyl]-3-yl)methyl]pyrrolidin-3-yl}ethanesulfonamide], the “OX2R agonist activity (3 μM, %)” value [1] was 82% and the response vs control in vivo at 0.1 mg/kg [3] was 225%.
For `Cc1cccc(-c2cccc(C[C@H]3[C@@H](NS(=O)(=O)N(C)C)C(F)(F)CN3C(=O)N3CCC3)c2F)c1` [Example 443, N′-{(2S,3R)-1-(azetidine-1-carbonyl)-4,4-difluoro-2-[(2-fluoro-3′-methyl[1,1′-biphenyl]-3-yl)methyl]pyrrolidin-3-yl}-N,N-dimethylsulfuric diamide], the “OX2R agonist activity (3 μM, %)” value [1] was 90% and the response vs control in vivo at 0.1 mg/kg [3] was 532%.
For `CCS(=O)(=O)N[C@H]1[C@@H](F)CN(C(=O)N2CCC2)[C@H]1Cc1cccc(-c2cc(F)cc(F)c2)c1F` [Example 450, N-{(2S,3R,4S)-1-(azetidine-1-carbonyl)-4-fluoro-2-[(2,3′,5′-trifluoro[1,1′-biphenyl]-3-yl)methyl]pyrrolidin-3-yl}ethanesulfonamide], the “OX2R agonist activity (3 μM, %)” value [1] was 86% and the response vs control in vivo at 0.3 mg/kg [3] was 814%.
In the case of `CN(C)S(=O)(=O)N[C@@H]1[C@H](Cc2cccc(-c3cc(F)cc(F)c3)c2F)N(C(=O)[C@H]2CCO2)CC1(F)F` [Example 542, N′-{(2S,3R)-4,4-difluoro-1-[(2R)-oxetane-2-carbonyl]-2-[(2,3′,5′-trifluoro[1,1′-biphenyl]-3-yl)methyl]pyrrolidin-3-yl}-N,N-dimethylsulfuric diamide], the “OX2R agonist activity (3 μM, %)” value [1] is reported as 100% and the response vs control in vivo at 0.3 mg/kg [3] is reported as 505%.
In the case of `Cc1cccc(-c2cccc(C[C@H]3[C@@H](NS(=O)(=O)N(C)C)[C@@H](F)CN3C(=O)C3(O)CCC3)c2F)c1` [Example 462, N′-[(2S,3R,4S)-4-fluoro-2-[(2-fluoro-3′-methyl[1,1′-biphenyl]-3-yl)methyl]-1-(1-hydroxycyclobutane-1-carbonyl)pyrrolidin-3-yl]-N,N-dimethylsulfuric diamide], the “OX2R agonist activity (3 μM, %)” value [1] is reported as 78% and the response vs control in vivo at 0.3 mg/kg [3] is reported as 365%.

From patent publication US20230040770A1, “HETEROCYCLIC COMPOUND AND USE THEREOF” (TAKEDA PHARMACEUTICAL COMPANY LIMITED, priority 2019, published 2023)
